The record followed here is ChEMBL document CHEMBL1914342, “Synthesis and in vitro EGFR (ErbB1) tyrosine kinase inhibitory activity of 4-N-substituted 6-aryl-7H-pyrrolo[2,3-d]pyrimidine-4-amines” (Eur J Med Chem, 2011).

The term IC50 denotes the concentration that inhibits the measured activity by half. Low readings indicate greater potency, high ones weaker potency.

Test [1] deals with T1, Epidermal growth factor receptor (Homo sapiens, UniProt P00533). Briefly: Inhibition of EGFR by Z-LYTE assay.
The target in test [2] is T1, Epidermal growth factor receptor. Briefly: Inhibition of EGF-induced EGFR internalization in human HeLa cells assessed as subcellular localization of receptor at 500 nM measured after 15 to 20 mins post receptor activation by immunostaining-based confocal microscopy analysis. It is filed as cell-based.

The source made the active and inactive calls. The rule behind the calls is not given here.

T1 sequence (P00533 whole entry): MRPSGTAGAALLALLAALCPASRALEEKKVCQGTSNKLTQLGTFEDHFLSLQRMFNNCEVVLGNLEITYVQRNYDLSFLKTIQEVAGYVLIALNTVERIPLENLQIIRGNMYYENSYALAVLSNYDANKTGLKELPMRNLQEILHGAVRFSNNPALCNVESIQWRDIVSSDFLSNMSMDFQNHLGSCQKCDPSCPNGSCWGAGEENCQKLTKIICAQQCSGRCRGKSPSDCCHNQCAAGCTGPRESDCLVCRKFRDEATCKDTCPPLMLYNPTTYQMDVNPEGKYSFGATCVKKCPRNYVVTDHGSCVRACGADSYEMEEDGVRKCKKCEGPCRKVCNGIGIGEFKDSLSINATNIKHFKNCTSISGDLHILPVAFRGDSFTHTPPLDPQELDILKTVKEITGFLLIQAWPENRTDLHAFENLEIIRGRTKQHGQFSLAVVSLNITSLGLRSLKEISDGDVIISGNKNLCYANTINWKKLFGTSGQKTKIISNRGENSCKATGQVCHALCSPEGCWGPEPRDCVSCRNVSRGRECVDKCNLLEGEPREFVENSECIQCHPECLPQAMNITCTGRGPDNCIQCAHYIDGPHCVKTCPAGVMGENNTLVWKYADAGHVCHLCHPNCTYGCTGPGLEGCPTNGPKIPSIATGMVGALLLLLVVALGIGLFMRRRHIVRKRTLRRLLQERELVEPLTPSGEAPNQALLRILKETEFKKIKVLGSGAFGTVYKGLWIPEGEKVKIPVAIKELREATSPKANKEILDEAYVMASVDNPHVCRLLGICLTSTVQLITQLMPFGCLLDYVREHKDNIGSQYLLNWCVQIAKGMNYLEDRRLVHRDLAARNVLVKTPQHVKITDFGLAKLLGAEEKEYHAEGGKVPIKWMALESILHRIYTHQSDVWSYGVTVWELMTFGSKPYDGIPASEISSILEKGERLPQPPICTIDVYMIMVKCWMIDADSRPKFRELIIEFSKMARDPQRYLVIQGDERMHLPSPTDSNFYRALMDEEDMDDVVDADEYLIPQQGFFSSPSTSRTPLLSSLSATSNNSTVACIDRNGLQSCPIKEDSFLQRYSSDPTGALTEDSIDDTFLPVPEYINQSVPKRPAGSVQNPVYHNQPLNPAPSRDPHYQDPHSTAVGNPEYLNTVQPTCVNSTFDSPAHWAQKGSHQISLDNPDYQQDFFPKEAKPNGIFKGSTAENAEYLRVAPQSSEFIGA

Regarding `Cc1ccc([C@@H](C)Nc2ncnc3[nH]c(-c4ccc(O)cc4)cc23)cc1`, inhibition in test [1] was half-maximal at 450 nM (IC50).
Still for that read-out and setting: the figure for `C[C@@H](Nc1ncnc2[nH]c(-c3ccc(F)cc3)cc12)c1ccccc1` is 6.6 nM.
The same measure, in the same setting: next, `C[C@@H](Nc1ncnc2[nH]c(-c3ccc(Br)cc3)cc12)c1ccccc1`: 63 nM.
On the same count and under the same terms, next, `C[C@@H](Nc1ncnc2[nH]c(-c3ccc(F)cc3)cc12)c1ccc(F)cc1`: 27 nM.
As for `C[C@@H](Nc1ncnc2[nH]c(-c3ccc(O)cc3)cc12)c1ccccc1`, in test [2], the inhibition result is “inactive”. In test [1], the midpoint of inhibition, the IC50, lay at 3.7 nM.
Consider `Oc1ccc(-c2cc3c(NCc4ccccc4)ncnc3[nH]2)cc1`, for which inhibition in test [1] was half-maximal at 3.3 nM (IC50).
Take `Oc1ccc(-c2cc3c(NCc4ccc(F)cc4)ncnc3[nH]2)cc1`: the half-maximal inhibitory concentration (IC50) in test [1] worked out at 26 nM.
Still for that read-out and setting: next, `C[C@@H](Nc1ncnc2[nH]c(-c3ccc(C#N)cc3)cc12)c1ccc(F)cc1`: 14 nM; `CC[C@@H](Nc1ncnc2[nH]c(-c3ccc(O)cc3)cc12)c1ccccc1`: 4 nM.
The same measure, in the same setting: next, `C[C@@H](Nc1nc[nH]c2nc(-c3ccccc3)cc1-2)c1ccccc1`: 3.3 nM.
Same read-out and setting: the figure for `C[C@@H](Nc1ncnc2[nH]c(-c3ccc(O)cc3)cc12)c1ccc(F)cc1` is 3.8 nM.
`Cc1ccccc1C(C)Nc1ncnc2[nH]c(-c3ccc(O)cc3)cc12` (racemic) displayed an IC50 in test [1] of 17 nM.
On the same count and under the same terms, next, `C[C@@H](Nc1ncnc2[nH]c(-c3ccc(O)cc3)cc12)c1ccc(Br)cc1`: 62 nM; `C[C@@H](Nc1ncnc2[nH]c(-c3ccc(O)cc3)cc12)c1cccc(F)c1`: 9 nM.
Still for that read-out and setting: the figure for `COc1ccc(-c2cc3c(N[C@H](C)c4ccccc4)ncnc3[nH]2)cc1` is 4.7 nM; for `C[C@@H](Nc1ncnc2[nH]c(-c3ccc(C#N)cc3)cc12)c1ccccc1` it is 12 nM.
The same measure, in the same setting: next, `Oc1ccc(-c2cc3c(NCc4cccc(F)c4)ncnc3[nH]2)cc1`: 52 nM; `C[C@@H](Nc1ncnc2[nH]c(-c3ccc(O)cc3)cc12)c1ccccc1F`: 8 nM.
In turn, `CC(Nc1ncnc2[nH]c(-c3ccc(O)cc3)cc12)c1cccc2ccccc12` (racemic) had an IC50 in test [1] of 1010 nM.
Still for that read-out and setting: next, `CC(Nc1ncnc2[nH]c(-c3ccc(O)cc3)cc12)c1ccc(C(F)(F)F)cc1` (racemic): 4610 nM.
Consider `Cc1cccc(C(C)Nc2ncnc3[nH]c(-c4ccc(O)cc4)cc23)c1` (racemic), for which half-maximal inhibition in test [1] (IC50) required 95 nM.
Turning to `C[C@@H](Nc1ncnc2[nH]c(-c3ccccc3)cc12)c1ccc(F)cc1`, 33 nM corresponded to half-maximal inhibition in test [1] (IC50).
Same read-out and setting: the figure for `C[C@@H](Nc1ncnc2[nH]c(-c3ccc(Br)cc3)cc12)c1ccc(F)cc1` is 29 nM.
Still for that read-out and setting: the figure for `Oc1ccc(-c2cc3c(NCc4ccccc4F)ncnc3[nH]2)cc1` is 45 nM.
